According to US11434219B2, “Purification of cannabinoids from crude cannabis oil” (TABA IP, LLC, priority 2018, dated 2022):
In brackets after ≈: the same amount, converted by molar mass.

Test: Solvent survey: solubility of THCA in solvents
Format: physicochemical
Description: Crystallization of THCA solvent survey study is carried out according the general procedure described above at 0° C. using crystalline THCA standard (rather than cannabis oil). The solubility (g/mL) provided an indication of loading capacities: higher loading capacities are desirable to make the process more efficient. The theoretical yield of THCA is determined based on the purity of the standard, which was 97.4%.

CCCCCc1cc2c(c(O)c1C(=O)O)[C@@H]1C=C(C)CC[C@H]1C(C)(C)O2 [THCA, tetrahydrocannabinolic acid]
Solubility (g/mL) 22.8° C. (solvent 1-Butanol): 0.151 g/mL (≈ 421 mM)
Solubility (g/mL) 30° C. (solvent 1-Butanol): 0.258 g/mL (≈ 720 mM)
Solubility (g/mL) 40° C. (solvent 1-Butanol): 0.514 g/mL (≈ 1430 mM)
Solubility (g/mL) 22.8° C. (solvent Acetone): 0.818 g/mL (≈ 2280 mM)
Solubility (g/mL) 30° C. (solvent Acetone): 1.063 g/mL (≈ 2970 mM)
Solubility (g/mL) 40° C. (solvent Acetone): 1.440 g/mL (≈ 4020 mM)
Solubility (g/mL) 22.8° C. (solvent Acetonitrile): 0.562 g/mL (≈ 1570 mM)
Solubility (g/mL) 30° C. (solvent Acetonitrile): 0.953 g/mL (≈ 2660 mM)
Solubility (g/mL) 40° C. (solvent Acetonitrile): 1.230 g/mL (≈ 3430 mM)
Solubility (g/mL) 22.8° C. (solvent DMA): 0.498 g/mL (≈ 1390 mM)
Solubility (g/mL) 30° C. (solvent DMA): 0.650 g/mL (≈ 1810 mM)
Solubility (g/mL) 40° C. (solvent DMA): 0.892 g/mL (≈ 2490 mM)
Solubility (g/mL) 22.8° C. (solvent DMF): 0.612 g/mL (≈ 1710 mM)
Solubility (g/mL) 30° C. (solvent DMF): 0.929 g/mL (≈ 2590 mM)
Solubility (g/mL) 40° C. (solvent DMF): 1.171 g/mL (≈ 3270 mM)
Solubility (g/mL) 22.8° C. (solvent Ethyl Acetate): 0.555 g/mL (≈ 1550 mM)
Solubility (g/mL) 30° C. (solvent Ethyl Acetate): 0.931 g/mL (≈ 2600 mM)
Solubility (g/mL) 40° C. (solvent Ethyl Acetate): 1.216 g/mL (≈ 3390 mM)
Solubility (g/mL) 22.8° C. (solvent Heptane): 0.092 g/mL (≈ 257 mM)
Solubility (g/mL) 30° C. (solvent Heptane): 0.155 g/mL (≈ 432 mM)
Solubility (g/mL) 40° C. (solvent Heptane): 0.258 g/mL (≈ 720 mM)
Solubility (g/mL) 22.8° C. (solvent THF): 0.743 g/mL (≈ 2070 mM)
Solubility (g/mL) 30° C. (solvent THF): 1.057 g/mL (≈ 2950 mM)
Solubility (g/mL) 40° C. (solvent THF): 1.324 g/mL (≈ 3690 mM)
Solubility (g/mL) 22.8° C. (solvent n-Propanol): 0.140 g/mL (≈ 391 mM)
Solubility (g/mL) 30° C. (solvent n-Propanol): 0.360 g/mL (≈ 1000 mM)
Solubility (g/mL) 40° C. (solvent n-Propanol): 0.585 g/mL (≈ 1630 mM)
